# Experimental data: patent US20250026747A1, “COLIBACTIN DERIVATIVES AND METHODS OF TREATING, AMELIORATING, AND/OR PREVENTING CANCER” (priority 2021, published 2025)
# Assays:
# [1] = system: FANCD2; assay: Immunofluorescence assay of FANCD2 foci in HeLa cells; format: cell-based, human; settings: 4 h treatment, 20 h further culture; for FANCD2 foci formation: 1-100 μM
# Description: (§1) FIGS. 7A-7B evaluates the Colibactin 742 (4) and its linear precursor 9 recapitulate the clb phenotype. […] HeLa cells were treated with the linear precursor 9 (1-100 μM), colibactin 742 (4) (1-100 μM) or MMC (150 nM) for 4 h. The cells were then washed and incubated for 20 h before immunofluorescence imaging. Cells were considered positive when >5 FANCD2 or γH2AX foci formed. Means and standard deviations of results from at least three independent experiments are shown. FIG. 7B depicts the DNA content histograms upon treatment with colibactin 742 (4, 11 μM) or 9 (11 μM) quantification of the sub-population of the histograms.
# (§2) The present study then probed the DNA damage response that was activated following exposure to colibactin 742 (4) or its linear precursor 9. In mammalian cells, DNA interstrand cross-links (ICLs) are repaired by the Fanconi anemia pathway, and activation of this pathway is observed when eukaryotic cells are infected with clb^+ bacteria. Upon detection of an ICL, the Fanconi anemia protein D2 (FANCD2) is activated by monoubiquitinylation and recruited to the ICL to coordinate repair. Following initiation of repair, a double-strand break (DSB) is generated, which in turns triggers the formation of phospho-SER139-H2AX (γH2AX) nuclear foci. […] Consequently, the instant study probed for activation of FANCD2 and γH2AX by immunofluorescence imaging in cells treated with 4 or 9. Using conditions that closely mimic the bacterial coinfection experiments, the instant study treated HeLa cells with colibactin 742 (4) (1-100 μM), the linear precursor 9 (1-100 μM), or MMC (150 nM, higher concentrations of MMC reduced cell viability) for 4 h. The cells were then washed and cultured for a further 20 h. […] Thus, the synthetic compounds 4 and 9 induce a similar activation of the eukaryotic DNA damage response as clb^+ E. coli.
# (§3) Cells were seeded at a density of 3500 cells per well to achieve total well volumes of 20 μL in 384-well plates (black with an optically clear bottom, Greiner Bio One 781091) using a Thermo Combidrop liquid dispenser. Cells were grown for 24 h, followed by the addition of test compounds using an Echo acoustic liquid handler (Labcyte). For each tested drug concentration, a 20 nL aliquot of the 1000× stock was added to 20 μL of cells to provide a final DMSO concentration of 0.1%. The compounds were incubated for 4 h at concentrations ranging from 1.2 μM to 100 μM in growth medium, at 37° C., 5% CO2. Each plate contained negative vehicle control wells (0.1% DMSO) and positive control wells (0.15 μM Mitomycin C, MMC). After 4 h incubation, the cells were washed once with Dulbecco's Phosphate-buffered solution (DPBS, Life Technologies), then fresh growth medium was added. The cells were incubated for 20 h, fixed, and subjected to immunofluorescence imaging.
# (§4) Cells were fixed with 4% paraformaldehyde (PFA) (Electron Microscopy Sciences) in the presence of 0.02% Triton X-100 at room temperature (RT) for 20 min and then incubated in permeabilization/blocking solution [10% FBS and 0.5% Triton X-100 in phosphate-buffered saline (PBS)] at RT for 1 h. Primary antibodies were diluted 1:500 in permeabilization/blocking solution and used to stain cells at 4° C. overnight. […] Cells were imaged using the InCell 2200 Imaging System (GE Corp.) and analyzed using InCell Analyzer software (GE Corp.) to quantify the number of γH2AX and FANCD2 foci. Cells were counted as positive for focus formation when 5 foci/nucleus were detected.
# [2] = system: γH2AX; assay: Immunofluorescence assay of γH2AX foci in HeLa cells; format: cell-based, human; settings: 4 h treatment, 20 h further culture; for number of positive cells for γH2AX foci: 11 μM, positive when >5 foci; for γH2AX foci formation: 1-100 μM
# Description: as §1, §2, §3, §4
SMILES,"number of positive cells for FANCD2 foci ([1]; 11 μM, positive when >5 foci)",cell death and decrease in positive cells at higher concentrations ([1]; higher concentrations (>33 μM)),number of positive cells for γH2AX foci [2],FANCD2 foci formation [1],γH2AX foci formation [2],number of positive cells for FANCD2 foci (with respect to DMSO) ([1]; 33 μM),number of positive cells for γH2AX foci (with respect to DMSO) ([2]; 33 μM)
C[C@H]1CCC(CC(=O)NC2(C(=O)CC(=O)NCC(=O)c3csc(CCc4csc(CNC(=O)CC(=O)C5(NC(=O)CC6=N[C@@H](C)CC6)CC5)n4)n3)CC2)=N1 [compound 9],four-fold increase,induced cell death,four-fold increase,–,–,–,–
C[C@H]1CCC(C2=C(CC(=O)NCC(=O)c3csc(CCc4csc(CNC(=O)CC5=C(C6=N[C@@H](C)CC6)C(=O)NC5(C)C)n4)n3)C(C)(C)NC2=O)=N1 [compound 22],–,–,–,did not induce,did not induce,–,–
"CCOC(=O)c1csc(CNC(=O)CC2=C(C3=N[C@@H](C)CC3)C(=O)NC23CC3)n1 [compound 23, reference compound]",–,–,induced significant γH2AX foci formation,–,–,three-fold increase,three-fold increase
CCOC(=O)c1nc(C2(O)CNC(=O)C2C2=C(C3=N[C@@H](C)CC3)C(=O)NC23CC3)cs1 (stereo partly shown) [compound 24],–,–,–,did not induce,did not induce,–,–
